Read-outs that look alike come from different tables or passages of the source.
What was measured:
[1] = target: human CB1 receptor (hCB1) (Homo sapiens, UniProt P21554); test: cell-based; format: cell-based
Summary of the method: (§1)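 Readout: LANCE TR-FRET cAMP, back-calculated from a concurrent standard curve and scaled between forskolin-only and forskolin + 1 μM CP55,940 wells. EC50 and intrinsic activity came from four-parameter fits.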

rat CB2 receptor (rCB2) = target: T1, rat CB2 receptor (rCB2) (Rattus norvegicus, UniProt Q9QZN9); test: cell-based; format: cell-based; conditions: for +/− RCB2: agonist or inverse agonist at rCB2
T1 sequence (Q9QZN9 1-360): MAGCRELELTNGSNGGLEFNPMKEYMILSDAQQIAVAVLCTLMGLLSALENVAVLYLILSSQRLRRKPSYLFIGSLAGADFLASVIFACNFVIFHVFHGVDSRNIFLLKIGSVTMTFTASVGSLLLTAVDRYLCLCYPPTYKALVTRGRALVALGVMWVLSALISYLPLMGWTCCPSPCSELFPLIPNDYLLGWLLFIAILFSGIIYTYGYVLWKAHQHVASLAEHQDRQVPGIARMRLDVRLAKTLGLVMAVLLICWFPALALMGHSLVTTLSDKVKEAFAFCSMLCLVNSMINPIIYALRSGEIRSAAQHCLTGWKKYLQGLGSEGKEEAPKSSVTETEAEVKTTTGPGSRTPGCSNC
Summary of the method: as §1

[2] = groups >100 nM-10 μM and >10 μM, cAMP, CHO-K1 hCB1, read-out: EC50 HCB1

Sequence of human CB1 receptor (hCB1) (P21554 whole entry): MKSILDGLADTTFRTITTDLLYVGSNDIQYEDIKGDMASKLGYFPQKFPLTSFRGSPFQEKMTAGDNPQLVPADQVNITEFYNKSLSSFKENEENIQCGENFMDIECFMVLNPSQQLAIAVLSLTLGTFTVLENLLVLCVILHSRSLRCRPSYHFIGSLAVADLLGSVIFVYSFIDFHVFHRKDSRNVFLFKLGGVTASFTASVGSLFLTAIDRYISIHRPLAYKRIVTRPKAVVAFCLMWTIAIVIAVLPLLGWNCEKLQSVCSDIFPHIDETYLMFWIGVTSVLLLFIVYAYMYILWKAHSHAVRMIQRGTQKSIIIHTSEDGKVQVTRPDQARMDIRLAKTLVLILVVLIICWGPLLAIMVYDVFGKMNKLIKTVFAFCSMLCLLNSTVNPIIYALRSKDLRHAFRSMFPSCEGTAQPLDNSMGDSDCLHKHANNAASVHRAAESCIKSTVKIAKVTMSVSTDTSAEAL

| SMILES | EC50 [1] | +/− RCB2 (rat CB2 receptor (rCB2)) | EC50 (rat CB2 receptor (rCB2)) | EC50 [1, 2] |
| --- | --- | --- | --- | --- |
| CC(C)CN1CCn2c(-c3ccccc3)nc(C(=O)N[C@H](C)C(C)(C)C)c2C1 [Compound 52, (R)-N-(3,3-dimethylbutan-2-yl)-7-isobutyl-3-phenyl-5,6,7,8-tetrahydroimidazo[1,5-a]pyrazine-1-carboxamide] | > 10000 nM | − |  |  |
| CC(C)CN1CCn2c(-c3ccccc3)nc(C(=O)N[C@@H](C)C(C)(C)C)c2C1 [Compound 53, (S)-N-(3,3-dimethylbutan-2-yl)-7-isobutyl-3-phenyl-5,6,7,8-tetrahydroimidazo[1,5-a]pyrazine-1-carboxamide] | > 10000 nM | − |  |  |
| CNC(=O)[C@@H](NC(=O)c1nc(-c2ccccc2)n2c1CN(CCC(C)(C)C)CC2)C(C)(C)C [Compound 54, (S)-N-(3,3-dimethyl-1-(methylamino)-1-oxobutan-2-yl)-7-(3,3-dimethylbutan)-3-phenyl-5,6,7,8-tetrahydroimidazo[1,5-a]pyrazine-1-carboxamide] | > 10000 nM | − |  |  |
| CNC(=O)[C@@H](NC(=O)c1nc(-c2ccccc2)n2c1CN(CC(C)(C)C)CC2)C(C)(C)C [Compound 55, (S)-N-(3,3-dimethyl-1-(methylamino)-1-oxobutan-2-yl)-7-neopentyl-3-phenyl-5,6,7,8-tetrahydroimidazo[1,5-a]pyrazine-1-carboxamide] | > 10000 nM | − |  |  |
| CNC(=O)[C@@H](NC(=O)c1nc(-c2ccccc2)n2c1CN(CC1CC1)CC2)C(C)(C)C [Compound 56, (S)-7-(cyclopropylmethyl)-N-(3,3-dimethyl-1-(methylamino)-1-oxobutan-2-yl)-3-phenyl-5,6,7,8-tetrahydroimidazo[1,5-a]pyrazine-1-carboxamide] | > 10000 nM | − |  |  |
| CN1CCn2c(-c3ccccc3)nc(C(=O)NCC(C)(C)C)c2C1 [Compound 57, 7-methyl-N-neopentyl-3-phenyl-5,6,7,8-tetrahydroimidazo[1,5-a]pyrazine-1-carboxamide] | > 10000 nM |  | > 10 µM |  |
| CC(C)CN1CCn2c(-c3ccccc3)nc(C(=O)NCC(C)(C)C)c2C1 [Compound 58, 7-isobutyl-N-neopentyl-3-phenyl-5,6,7,8-tetrahydroimidazo[1,5-a]pyrazine-1-carboxamide] | > 10000 nM | − |  |  |
| CN1CCn2c(-c3ccccc3)nc(C(=O)N[C@H](CO)C(C)(C)C)c2C1 [Compound 59, (S)-N-(1-hydroxy-3,3-dimethylbutan-2-yl)-7-methyl-3-phenyl-5,6,7,8-tetrahydroimidazo[1,5-a]pyrazine-1-carboxamide] | > 10000 nM |  | > 10 µM |  |
| CC(C)CN1CCn2c(-c3ccccc3)nc(C(=O)N[C@H](CO)C(C)(C)C)c2C1 [Compound 60, (S)-N-(1-hydroxy-3,3-dimethylbutan-2-yl)-7-isobutyl-3-phenyl-5,6,7,8-tetrahydroimidazo[1,5-a]pyrazine-1-carboxamide] | > 10000 nM | − |  |  |
| CNC(=O)[C@@H](NC(=O)c1nc(-c2ccccc2)n2c1CN(Cc1ccccc1)CC2)C(C)(C)C [Compound 61, (S)-7-benzyl-N-(3,3-dimethyl-1-(methylamino)-1-oxobutan-2-yl)-3-phenyl-5,6,7,8-tetrahydroimidazo[1,5-a]pyrazine-1-carboxamide] | > 10000 nM |  | > 10 µM |  |
| CNC(=O)[C@@H](NC(=O)c1nc(-c2ccccc2)n2c1CN(Cc1cncnc1)CC2)C(C)(C)C [Compound 62, (S)-N-(3,3-dimethyl-1-(methylamino)-1-oxobutan-2-yl)-3-phenyl-7-(pyrimidin-5-ylmethyl)-5,6,7,8-tetrahydroimidazo[1,5-a]pyrazine-1-carboxamide] | > 10000 nM | − |  |  |
| CNC(=O)[C@@H](NC(=O)c1nc(-c2ccccc2)n2c1CN(Cc1cccnc1)CC2)C(C)(C)C [Compound 63, (S)-N-(3,3-dimethyl-1-(methylamino)-1-oxobutan-2-yl)-3-phenyl-7-(pyridin-3-ylmethyl)-5,6,7,8-tetrahydroimidazo[1,5-a]pyrazine-1-carboxamide] | > 10000 nM |  | > 10 µM |  |
| CNC(=O)[C@@H](NC(=O)c1nc(-c2ccccc2)n2c1CN(Cc1ccco1)CC2)C(C)(C)C [Compound 64, (S)-N-(3,3-dimethyl-1-(methylamino)-1-oxobutan-2-yl)-7-(furan-2-ylmethyl)-3-phenyl-5,6,7,8-tetrahydroimidazo[1,5-a]pyrazine-1-carboxamide] | > 10000 nM | − |  |  |
| CNC(=O)[C@@H](NC(=O)c1nc(-c2ccccc2)n2c1CN(Cc1ccnn1C)CC2)C(C)(C)C [Compound 65, (S)-N-(3,3-dimethyl-1-(methylamino)-1-oxobutan-2-yl)-7-((1-methyl-1H-pyrazol-5-yl)methyl)-3-phenyl-5,6,7,8-tetrahydroimidazo[1,5-a]pyrazine-1-carboxamide] | > 10000 nM |  | > 10 µM |  |
| CNC(=O)[C@@H](NC(=O)c1nc(-c2ccccc2)n2c1CN(Cc1cnn(C)c1)CC2)C(C)(C)C [Compound 66, (S)-N-(3,3-dimethyl-1-(methylamino)-1-oxobutan-2-yl)-7-((1-methyl-1H-pyrazol-4-yl)methyl)-3-phenyl-5,6,7,8-tetrahydroimidazo[1,5-a]pyrazine-1-carboxamide] | > 10000 nM | + |  |  |
| CN1CCn2c(-c3ccccc3)nc(C(=O)N[C@@H](CO)C(C)(C)C)c2C1 [Compound 67, (R)-N-(1-hydroxy-3,3-dimethylbutan-2-yl)-7-methyl-3-phenyl-5,6,7,8-tetrahydroimidazo[1,5-a]pyrazine-1-carboxamide] | > 10000 nM |  | > 10 µM |  |
| CC(C)CN1CCn2c(-c3ccccc3)nc(C(=O)N[C@@H](CO)C(C)(C)C)c2C1 [Compound 68, (R)-N-(1-hydroxy-3,3-dimethylbutan-2-yl)-7-isobutyl-3-phenyl-5,6,7,8-tetrahydroimidazo[1,5-a]pyrazine-1-carboxamide] | > 10000 nM | − |  |  |
| CN1CCn2c(-c3ccccc3)nc(C(=O)N3CCOCC3)c2C1 [Compound 69, (7-methyl-3-phenyl-5,6,7,8-tetrahydroimidazo[1,5-a]pyrazin-1-yl)(morpholino)methanone] |  | − |  | > 10000 nM |
| CC(C)CN1CCn2c(-c3ccccc3)nc(C(=O)N3CCOCC3)c2C1 [Compound 70, (7-isobutyl-3-phenyl-5,6,7,8-tetrahydroimidazo[1,5-a]pyrazin-1-yl)(morpholino)methanone] |  | − |  | > 10000 nM |
| CNC(=O)[C@@H](NC(=O)c1nc(-c2ccccc2)n2c1CN(Cc1cccn1C)CC2)C(C)(C)C [Compound 71, (S)-N-(3,3-dimethyl-1-(methylamino)-1-oxobutan-2-yl)-7-((1-methyl-1H-pyrrol-2-yl)methyl)-3-phenyl-5,6,7,8-tetrahydroimidazo[1,5-a]pyrazine-1-carboxamide] | > 10000 nM | − |  |  |
| CNC(=O)[C@@H](NC(=O)c1nc(-c2ccccc2)n2c1CN(Cc1nccs1)CC2)C(C)(C)C [Compound 72, (S)-N-(3,3-dimethyl-1-(methylamino)-1-oxobutan-2-yl)-3-phenyl-7-(thiazol-2-ylmethyl)-5,6,7,8-tetrahydroimidazo[1,5-a]pyrazine-1-carboxamide] | > 10000 nM |  | > 10 µM |  |

— patent US7517874B2 (priority 2007, dated 2009)
